Data on 19 compounds can be found in patent US10138255B2, “Piperazine derivatives as HIV protease inhibitors” (Merck Sharp & Dohme Corp., priority 2014, dated 2018).

The structures appear in SMILES notation.

The experiment has as its system HIV-1 (H9IIIB strain). The experiment is described as follows: Cell-Based HIV Infection Assay Using a Reporter (MT4-GFP cells). The following applies: Human immunodeficiency virus 1, inflection point (IP) of viral growth inhibition; MT4-GFP cells infected with HIV-1 H9IIIB; 50% normal human serum; mean of at least two independent experiments; read-out: Cell Based IP (50% NHS). How it is done:
Cell-Based HIV Infection Assay Using a Reporter (“Cell-Based”):
MT4-GFP cells contain a stably integrated HIV long terminal repeat promoter directing the transcription of green fluorescent protein (GFP). When HIV infects the cell, GFP is produced and the cell becomes green. MT4-GFP cells (250,000 cells/mL) were bulk-infected with HIV-1 (H9IIIB strain) at low multiplicity of infection (MOI) in RPM 1640 media, supplemented with 10% FBS for 24 h. Cells were then washed once in RPMI 1640 plus 10% FBS and resuspended in RPMI plus 50% normal human serum (NHS). Test compounds were serial-diluted in DMSO using an ECHO liquid dispenser. A control well included a combination of three HIV drugs (an inhibitor of HIV protease, integrase strand transfer and a non-nucleoside reverse transcriptase inhibitor; triple drug). The infected MT4-GFP cells were added to a 384-well poly-D-lysine coated black plate with clear bottom in which the diluted test compounds were placed. The cells were seeded in the plate at 8,000 cells per well and the final DMSO concentration was 0.4%. Infected cells were quantified at both 24 and 48 h post incubation using an Acumen eX3 plate reader. Viral reproductive ratio (R0) was determined using the number of infected cells at 48 h divided by the number of infected cells at 24 h. Percent viral growth inhibition was calculated by [1−(R−Rtripledrug)/(RDMSO−Rtripledrug)]*100. Compound potency inflection point (IP) was determined with use of a 4-parameter dose response curve analysis.
Data shown in the table reflects the mean of at least two independent experiments.
With `COC(=O)N[C@H](C(=O)N[C@H]1CCC[C@@H]1CC[C@H]1CN[C@@H]2CCCS(=O)(=O)N1C2)[C@@H](c1ccc(F)cc1)C1CCOC(C)(C)C1` (stereo partly drawn) [Example 50, methyl [(1S,2R)-2-(2,2-dimethyltetrahydro-2H-pyran-4-yl)-1-{[(1S,2R)-2-{2-[(6R,9S)-2,2-dioxido-2-thia-1,7-diazabicyclo[4.3.1]dec-9-yl]ethyl}cyclopentyl]carbamoyl}-2-(4-fluorophenyl)ethyl]carbamate], the EC50 was 28 nM.

As for `C[C@@H]1C[C@H](C(c2ccc(F)cc2)[C@H](N)C(=O)Nc2cccc(F)c2CC[C@H]2CN[C@@H]3CCCS(=O)(=O)N2C3)C[C@H](C)O1` (stereo partly drawn) [Example 15, β-[(2R,4r,6S)-2,6-Dimethyltetrahydro-2H-pyran-4-yl]-N-(2-{2-[(6R,9S)-2,2-dioxido-2-thia-1,7-diazabicyclo[4.3.1]dec-9-yl]ethyl}-3-fluorophenyl)-4-fluoro-L-phenylalaninamide], the EC50 was found to be 8.8 nM. As to `N[C@H](C(=O)N[C@H]1CCC[C@@H]1CC[C@H]1CN[C@@H]2CCCS(=O)(=O)N1C2)[C@H](c1cncc(F)c1)c1ccc(Cl)c(F)c1` [Example 81, (βS)-4-chloro-N-[(1S,2R)-2-{2-[(6R,9S)-2,2-dioxido-2-thia-1,7-diazabicyclo[4.3.1]dec-9-yl]ethyl}cyclopentyl]-3-fluoro-β-(5-fluoropyridin-3-yl)-L-phenylalaninamide], the EC50 came to 68 nM. Consider `CC(C)Oc1cnc([C@H](c2ccc(Cl)cc2)[C@H](N)C(=O)Nc2cncc(F)c2CC[C@H]2CN[C@@H]3CCCS(=O)(=O)N2C3)cn1` [Example 263, (βR)-4-chloro-N-(4-{2-[(6R,9S)-2,2-dioxido-2-thia-1,7-diazabicyclo[4.3.1]dec-9-yl]ethyl}-5-fluoropyridin-3-yl)-β-[5-(1-methylethoxy)pyrazin-2-yl]-L-phenylalaninamide], for which the EC50 was 5.2 nM. Under `COc1ccc([C@H](c2ccc(Cl)cc2)[C@H](N)C(=O)N[C@H]2CCC[C@@H]2CC[C@H]2CN[C@@H]3CCCS(=O)(=O)N2C3)cn1` [Example 80, (βS)-4-chloro-N-[(1S,2R)-2-{2-[(6R,9S)-2,2-dioxido-2-thia-1,7-diazabicyclo[4.3.1]dec-9-yl]ethyl}cyclopentyl]-β-(6-methoxypyridin-3-yl)-L-phenylalaninamide] stands 71 nM; under `N[C@H](C(=O)Nc1cccc(F)c1CC[C@H]1CNC2CCCS(=O)(=O)N1C2)C1(c2ccc(F)cc2)CCC(F)(F)CC1` (stereo partly drawn) [Example 39, (2S)-2-amino-2-[4,4-difluoro-1-(4-fluorophenyl)cyclohexyl]-N-(2-{2-[(9S)-2,2-dioxido-2-thia-1,7-diazabicyclo[4.3.1]dec-9-yl]ethyl}-3-fluorophenyl)ethanamide], 200 nM. In the case of `C[C@@H]1CC([C@H](c2ccc(Cl)cc2)[C@H](N)C(=O)N[C@H]2CCCC[C@@H]2CC[C@H]2CN[C@@H]3CCCS(=O)(=O)N2C3)C[C@H](C)O1` (stereo partly drawn) [Example 162, (βR)-4-chloro-β-[(2R,6S)-2,6-dimethyltetrahydro-2H-pyran-4-yl]-N-[(1S,2R)-2-{2-[(6R,9S)-2,2-dioxido-2-thia-1,7-diazabicyclo[4.3.1]dec-9-yl]ethyl}cyclohexyl]-L-phenylalaninamide] it was 37 nM; in that of `N[C@H](C(=O)Nc1cc(F)cc(F)c1CC[C@H]1CN[C@@H]2CCCS(=O)(=O)N1C2)[C@@H](c1ccc(Cl)cc1)C1CCOCC1` [Example 143, (βR)-4-chloro-N-(2-{2-[(6R,9S)-2,2-dioxido-2-thia-1,7-diazabicyclo[4.3.1]dec-9-yl]ethyl}-3,5-difluorophenyl)-β-(tetrahydro-2H-pyran-4-yl)-L-phenylalaninamide], 77 nM; in that of `N[C@H](C(=O)Nc1cncc(F)c1CC[C@H]1CN[C@@H]2CCCS(=O)(=O)N1C2)[C@@H](c1ccc(Cl)cc1)C1CCCC(F)(F)C1` (stereo partly drawn) [Example 272, (βR)-4-chloro-β-(3,3-difluorocyclohexyl)-N-(4-{2-[(6R,9S)-2,2-dioxido-2-thia-1,7-diazabicyclo[4.3.1]dec-9-yl]ethyl}-5-fluoropyridin-3-yl)-L-phenylalaninamide], 5.7 nM. Under `N[C@H](C(=O)Nc1cccc(F)c1CC[C@H]1CNC[C@@H]2CCCS(=O)(=O)N1C2)[C@@H](c1ccc(Cl)cc1)C1CCOCC1` [Example 274, (2S,3R)-2-Amino-3-(4-chlorophenyl)-N-(2-(2-((6S,10S)-2,2-dioxido-2-thia-1,8-diazabicyclo[4.4.1]undecan-10-yl)ethyl)-3-fluorophenyl)-3-(tetrahydro-2H-pyran-4-yl)propanamide] stands 670 nM; under `COC(=O)N[C@H](C(=O)Nc1cccc(F)c1CCC1CNC2CCCS(=O)(=O)N1C2)[C@@H](c1ccc(Cl)cc1)c1cncc(C(C)(F)F)c1` (stereo partly drawn) [Example 114, methyl [(1S,2S)-2-(4-chlorophenyl)-2-[5-(1,1-difluoroethyl)pyridin-3-yl]-1-({2-[2-(2,2-dioxido-2-thia-1,7-diazabicyclo[4.3.1]dec-9-yl)ethyl]-3-fluorophenyl}carbamoyl)ethyl]carbamate], 22 nM; under `CO[C@H]1CC[C@H]([C@H](c2ccc(Cl)cc2)[C@H](N)C(=O)Nc2cncc(F)c2CC[C@H]2CN[C@@H]3CCCS(=O)(=O)N2C3)CC1` [Example 239, (2S,3R)-2-amino-3-(4-chlorophenyl)-N-(4-(2-((6R,9S)-2,2-dioxido-2-thia-1,7-diazabicyclo[4.3.1]decan-9-yl)ethyl)-5-fluoropyridin-3-yl)-3-((1r,4R)-4-methoxycyclohexyl)propanamide], 5.6 nM. Take `N[C@H](C(=O)Nc1cccc(F)c1CCC1CNC2CCCS(=O)(=O)N1C2)[C@@H](c1ccc(Cl)cc1)C1CC(F)(F)C1` (stereo partly drawn) [Example 48, (βR)-4-chloro-β-(3,3-difluorocyclobutyl)-N-{2-[2-(2,2-dioxido-2-thia-1,7-diazabicyclo[4.3.1]dec-9-yl)ethyl]-3-fluorophenyl}-L-phenylalaninamide]: the EC50 is 33 nM. On to `COC(=O)N[C@H](C(=O)Nc1cc(F)ccc1CC[C@H]1CN[C@@H]2CCCS(=O)(=O)N1C2)[C@@H](c1ccc(F)cc1)C1C[C@@H](C)O[C@@H](C)C1` (stereo partly drawn) [Example 30, Methyl [(1S,2R)-2-[(2R,6S)-2,6-dimethyltetrahydro-2H-pyran-4-yl]-1-[(2-{2-[(6R,9S)-2,2-dioxido-2-thia-1,7-diazabicyclo[4.3.1]dec-9-yl]ethyl}-5-fluorophenyl)carbamoyl]-2-(4-fluorophenyl)ethyl]carbamate], for which the EC50 came out at 10 nM. Under `CCO[C@H]1CC[C@H](C(c2ccc(Cl)c(F)c2)[C@H](N)C(=O)Nc2cccc(F)c2CC[C@H]2CN[C@@H]3CCCS(=O)(=O)N2C3)CC1` (stereo partly drawn) [Example 248, (βR).4-chloro-N-(2-{2-[(6R,9S)-2,2-dioxido-2-thia-1,7-diazabicyclo[4.3.1]dec-9-yl]ethyl}-3-fluorophenyl)-β-[(1r,4R)-4-ethoxycyclohexyl]-3-fluoro-L-phenylalaninamide] stands 5.5 nM; under `COC(=O)N[C@H](C(=O)Nc1cccc(F)c1CCC1CNC2CCCS(=O)(=O)N1C2)[C@@H](c1ccc(F)cc1)c1ccc2c(c1)CCC2` (stereo partly drawn) [Example 34, Methyl [(1S,2S)-2-(2,3-dihydro-1H-inden-5-yl)-1-({2-[2-(2,2-dioxido-2-thia-1,7-diazabicyclo[4.3.1]dec-9-yl)ethyl]-3-fluorophenyl}carbamoyl)-2-(4-fluorophenyl)ethyl]carbamate], 23 nM. As to `COC(=O)N[C@H](C(=O)Nc1cccc(F)c1CC[C@H]1CN[C@@H]2CCCS(=O)(=O)N1C2)C(c1ccc(F)cc1)[C@H]1C[C@@H](C)O[C@@H](C)C1` (stereo partly drawn) [Example 83, methyl [(1S)-2-[(2R,4r,6S)-2,6-dimethyltetrahydro-2H-pyran-4-yl]-1-[(2-{2-[(6R,9S)-2,2-dioxido-2-thia-1,7-diazabicyclo[4.3.1]dec-9-yl]ethyl}-3-fluorophenyl)carbamoyl]-2-(4-fluorophenyl)ethyl]carbamate], the EC50 was found to be 8.2 nM.

Turning to `C[C@@H]1C[C@H]([C@H](c2ccc(Cl)cc2)[C@H](N)C(=O)Nc2cncc(F)c2CC[C@H]2CN[C@@H]3CCCS(=O)(=O)N2C3)C[C@H](C)O1` [Example 31, (2S,3R)-2-Amino-3-(4-chlorophenyl)-3-((2R,4r,6S)-2,6-dimethyltetrahydro-2H-pyran-4-yl)-N-(4-(2-((6R,9S)-2,2-dioxido-2-thia-1,7-diazabicyclo[4.3.1]decan-9-yl)ethyl)-5-fluoropyridin-3-yl)propanamide], the EC50 was determined as 6.3 nM. In the case of `COC(=O)N[C@H](C(=O)Nc1cccc(F)c1CC[C@H]1CN[C@@H]2CCCS(=O)(=O)N1C2)[C@]1(c2ccc(Cl)cc2)CC[C@H](OC)CC1` [Example 125, methyl {(1S)-1-[cis-1-(4-chlorophenyl)-4-methoxycyclohexyl]-2-[(2-{2-[(6R,9S)-2,2-dioxido-2-thia-1,7-diazabicyclo[4.3.1]dec-9-yl]ethyl}-3-fluorophenyl)amino]-2-oxoethyl}carbamate] it was 71 nM.
